From patent US11066634B2, “Culture device and methods for enumerating mold colonies” (3M INNOVATIVE PROPERTIES COMPANY, priority 2013, dated 2021) come the findings set out here.

Where two headings read alike, the source gives them in different places.

The test system of experiment [1] is mold species shown in Table 7. Particulars: for some species; EDTA concentrations higher than 1 wt % of the dry powder coatings. As to the method: The mold species shown in Table 7 were serially diluted, inoculated, incubated, imaged, and analyzed as described for the A. niger cultures.
Experiment [2] relates to Aspergillus niger (ATCC #16484). Particulars: for Colony Size Reduction: 1 mM vs 0 mM EDTA. As to the method:
Fat free skim milk was purchased from a local grocery store. 3.7 milligrams of disodium EDTA dihydrate was added to 10 milliliters of the fat-free skim milk to provide a final concentration of 1 millimolar EDTA. A suspension of Aspergillus niger (ATCC #16484) was diluted in Butterfields buffer to a concentration of approximately 500 colony forming units per milliliter. 100 microliters of the diluted suspension was added to the milk sample. After briefly vortexing, 1 milliliter of the milk sample containing the mold was used to inoculate PYM plates according to the manufacturer's instructions. The PYM plates were incubated at 30° C. for 48 hours, followed by imaging and colony size analysis as described above. A control sample (without milk) was also prepared in Butterfield's buffer.

The next experiment deals with C. glabrata. Particulars: for Colony area (mean ± standard deviation): 91 hours.
The next experiment deals with R. mucilaginosa. Particulars: for Colony area (mean ± standard deviation): 91 hours.
The subject of a further experiment is C. guillermondi. Particulars: for Colony area (mean ± standard deviation): 91 hours.
The subject of experiment [3] is Aspergillus niger.
Procedure: A diluted suspension of Aspergillus niger was prepared as described in example 1. A 1 millimolar solution of EDTA was prepared by dissolving 3.7 milligrams of EDTA in 10 milliliters of Butterfield's buffer. The Aspergillus niger diluted suspension was added to the EDTA/Butterfield's to provide a cell concentration of approximately 5 cfu per milliliter. Five replicate devices were prepared by adding one milliliter of the inoculum to PYM plates according to the manufacturer's instructions. A set of control plates was prepared from a 5 cfu per ml solution of Aspergillus niger containing no EDTA.
For experiment [4], the system named is Aspergillus niger. The experiment is described as follows: Aspergillus niger on PYM plates with EGTA in the inoculum (Example 13). Type of experiment: cell-based. Particulars: for Reduction in colony area / Colony area: 48 hours; for 48 hour count / 72 hour count: total for three plates. As to the method:
A 4-millimolar solution of ethylene glycol tetraacetic acid (EGTA) was prepared by dissolving 15.2 milligrams of EGTA in 10 milliliters of Butterfield's buffer. Serial two-fold dilutions were prepared to provide solutions containing 2 millimolar and 1 millimolar EGTA, respectively. “EGTA”, as used in the Examples, refers to ethylene glycol-bis(2-aminoethylether)-N,N,N′,N′-tetraacetic acid (67-42-5) obtained from Sigma-Aldrich (St. Louis, Mo.). A suspension of Aspergillus niger was diluted and added to the solutions as described in Example 12 to provide final cell concentrations of approximately 5 cfu per ml. Three replicate devices were prepared by inoculating 1 milliliter of the mold suspensions to PYM plates according to the manufacturer's instructions. Images of the plates were obtained after 48 hours and 72 hours of incubation, respectively. […] The average colony size after 48 hours of incubation was determined by imaging the plates and analyzing the images as described above.

Where [5] appears, read: EDTA at concentrations below 1%.
[6] abbreviates: EDTA concentrations higher than 1%.

Procedure for C. glabrata: (§1) Thin film culture devices were prepared as described above. Three yeast strains were serially diluted from a frozen stock to provide a final concentration of approximately 100 CFU per ml. The thin film culture devices were inoculated, incubated for 91 hours, imaged, and analyzed as described above.
Procedure for C. guillermondi: as §1
Procedure for R. mucilaginosa: as §1

For “disodium ethylenediamine tetraacetic acid dihydrate [EDTA]”, the “delay in the appearance of visible colonies” value in experiment [1] is on record as “a delay in the appearance of visible colonies was observed”. The “Colony Area (1 mM EDTA)” value in experiment [2] (Buffer Control (Butterfield's buffer, without milk), 48 hours) is recorded as 3276; in experiment [2] (Skim Milk sample, 30° C. for 48 hours), 3789. Also, the “Colony Size Reduction” value in experiment [2] (Buffer Control, 48 hours) was −91%; in experiment [2] (Skim Milk sample, 48 hours), −86%. For the same compound, the “Colony area (mean ± standard deviation)” value in the experiment on C. glabrata (0.5% EDTA) came out at 487 ± 300 pixels; with C. glabrata (1% EDTA) it was 308 ± 201 pixels; in the experiment with C. glabrata (2.3% EDTA), 0 ± 0 pixels; with C. glabrata (4.2% EDTA), 0 ± 0 pixels; in the experiment on R. mucilaginosa (0.5% EDTA), 251 ± 95 pixels; in the experiment on R. mucilaginosa (1% EDTA) it was 148 ± 76 pixels. Besides, the “Colony area (mean ± standard deviation)” value was found to be 0 ± 0 pixels with R. mucilaginosa (2.3% EDTA); 0 ± 0 pixels with R. mucilaginosa (4.2% EDTA); 490 ± 129 pixels with C. guillermondi (0.5% EDTA); 201 ± 119 pixels in the experiment with C. guillermondi (1% EDTA); 381 ± 140 pixels in the experiment on C. guillermondi (2.3% EDTA); 162 ± 92 pixels with C. guillermondi (4.2% EDTA). For the same compound, the “effect on colony size” value in the experiment with C. glabrata (setting [5]), in the experiment with R. mucilaginosa (setting [5]) and in the experiment on C. guillermondi (setting [5]) was “not affected” in each case. Also, the detection of colonies result with C. glabrata (setting [6]) and with R. mucilaginosa (setting [6]) was “not detected” each time. The compound further came in with a Colony area with Aspergillus niger [3] (1 mM EDTA in inoculum, 48 hours) of 1492 pixels. Also, in the experiment with Aspergillus niger [3] (1 mM EDTA in inoculum, 48 hr), the “CFUs (48 hr)” value is listed as 15. The “CFUs (72 hr)” value in the experiment with Aspergillus niger [3] (1 mM EDTA in inoculum, 72 hr) is 16. Also, in the experiment with Aspergillus niger [3] (1 mM EDTA, after 48 hours of incubation), the “average colony diameter smaller than the control plates” value is listed as “approximately 20 fold”.
For the compound `O=C(O)CN(CCOCCOCCN(CC(=O)O)CC(=O)O)CC(=O)O` [EGTA, ethylene glycol-bis(2-aminoethylether)-N,N,N′,N′-tetraacetic acid], the “Reduction in colony area” value with Aspergillus niger [4] (1 mM EGTA vs 0 mM control) was −9%; in the experiment with Aspergillus niger [4] (2 mM EGTA vs 0 mM control) it was −43%; with Aspergillus niger [4] (4 mM EGTA vs 0 mM control) it was −78%. The values for the Colony area with Aspergillus niger [4] (1 mM EGTA), with Aspergillus niger [4] (2 mM EGTA) and with Aspergillus niger [4] (4 mM EGTA) were 24107 pixels, 15177 pixels and 5772 pixels, respectively. The 48 hour count in the experiment on Aspergillus niger [4] (1 mM EGTA) worked out at 12; in the experiment on Aspergillus niger [4] (2 mM EGTA), 14; in the experiment on Aspergillus niger [4] (4 mM EGTA) it was 11. For the same compound, the 72 hour count came to 12 in the experiment on Aspergillus niger [4] (1 mM EGTA), 14 in the experiment with Aspergillus niger [4] (2 mM EGTA) and 11 in the experiment with Aspergillus niger [4] (4 mM EGTA).
